Source: US12419890B2, “Administration of sumo-activating enzyme inhibitor and checkpoint inhibitors” (Takeda Pharmaceutical Company Limited, priority 2019, dated 2025)

What was measured:
[1] = system: A20 syngeneic mouse B-cell lymphoma-derived subcutaneous tumor; test: A20 Study 3: mouse A20 syngeneic tumor model, individual tumor volume; type: in vivo
Description: A20 Study 3: A20 is a mouse B-cell lymphoma cell line. A20 mouse syngeneic tumor model was generated by subcutaneous inoculation with 1.0×10^6 A20 cells (cell suspension) in 8 weeks old female BALB/c mice (Jackson Laboratory, 600 Main St, Bar Harbor, ME) in the flank. When the mean tumor volume reached approximately 50 mm^3, the animals were randomized into one vehicle control and three treatment groups (n=7/group). Mice were then dosed with 20% HPbCD or Compound I-263a or anti-mouse PD-1 antibody over a 11-day period. Tumor growth and body weight were measured twice per week during the treatment and post-treatment periods, and mice were humanely euthanized once they had reached their humane endpoint.
Study 3: A 1.65 mg/mL stock solution of Compound I-263a was formulated weekly in 20% HPβCD and administered intravenously (IV) based on exact animal body weight on each day of treatment, using a dosing volume of 10 mL/kg body weight. Final doses received were 15 mg/kg. Dosing volume for Compound I-263a was 0.2 mL. […]
Tumors were measured twice weekly using vernier calipers. Tumor volumes were calculated using standard equation: V=W^2×L/2, where V=volume, W=width, and L=length for the tumor. […] Tumor size and body weight were measured twice a week for the duration of the study. […]

[2] = system: SUMO-activating enzyme and SUMOylation; test: inhibition of SUMO-activating enzyme and SUMOylation in cultured tumor cell lines; type: cell-based; conditions: cultured mouse and human tumor cell lines
From the text: (§1) SAE inhibitors, as disclosed herein, are described, for example, in US 2016/0009744 and U.S. Pat. No. 9,695,154. They may be prepared by methods known to one skilled in the art and/or according to the methods described in US 2016/0009744 and U.S. Pat. No. 9,695,154, which is hereby incorporated by reference in its entirety. Central to the mechanism of action of useful SAE inhibitors, such as Compound I-263a, in combinations and methods of the present disclosure is production of type 1 IFNs and induction of an innate immune response with activation of dendritic cells, natural killer (NK) cells and macrophages.

SUMO-activating enzyme = target: T1, SUMO-activating enzyme (Homo sapiens, UniProt Q9UBT2); test: biochemical assays of SUMO-activating enzyme
T1 sequence (Q9UBT2 1-640): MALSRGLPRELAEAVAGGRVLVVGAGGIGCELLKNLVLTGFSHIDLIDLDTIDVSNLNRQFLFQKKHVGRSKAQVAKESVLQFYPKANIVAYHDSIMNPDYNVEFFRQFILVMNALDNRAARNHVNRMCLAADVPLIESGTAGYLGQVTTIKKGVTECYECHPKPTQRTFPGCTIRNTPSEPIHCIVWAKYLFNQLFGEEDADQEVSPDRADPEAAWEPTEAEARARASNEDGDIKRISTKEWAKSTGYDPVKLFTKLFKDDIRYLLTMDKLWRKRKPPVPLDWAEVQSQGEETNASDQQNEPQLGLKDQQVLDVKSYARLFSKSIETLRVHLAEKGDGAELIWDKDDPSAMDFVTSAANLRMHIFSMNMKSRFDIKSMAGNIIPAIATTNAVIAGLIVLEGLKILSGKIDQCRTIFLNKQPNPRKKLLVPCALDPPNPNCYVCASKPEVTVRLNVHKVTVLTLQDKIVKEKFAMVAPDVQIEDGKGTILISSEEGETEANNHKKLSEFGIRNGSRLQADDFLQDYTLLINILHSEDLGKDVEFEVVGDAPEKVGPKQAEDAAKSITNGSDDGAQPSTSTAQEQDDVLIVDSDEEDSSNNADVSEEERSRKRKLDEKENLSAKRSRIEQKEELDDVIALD
T1 sequence (Q9UBE0 1-346 partner): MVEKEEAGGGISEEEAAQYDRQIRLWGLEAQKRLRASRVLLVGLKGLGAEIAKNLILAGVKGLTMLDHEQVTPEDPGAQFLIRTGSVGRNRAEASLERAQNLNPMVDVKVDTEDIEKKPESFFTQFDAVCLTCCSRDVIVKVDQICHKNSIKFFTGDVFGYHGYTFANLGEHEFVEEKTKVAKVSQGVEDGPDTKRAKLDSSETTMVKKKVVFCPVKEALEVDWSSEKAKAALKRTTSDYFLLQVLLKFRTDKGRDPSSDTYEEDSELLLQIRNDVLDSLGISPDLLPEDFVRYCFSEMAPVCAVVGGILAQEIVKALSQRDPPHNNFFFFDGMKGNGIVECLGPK
From the text: as §1

inhibition of SUMO-activating enzyme activity (SUMO-activating enzyme; mechanism-based inhibitor forming a covalent adduct with SUMO): potently inhibits enzyme activity | selectivity for SUMO-activating enzyme (SUMO-activating enzyme; over ubiquitin-activating enzymes, Nedd8-activating enzyme, and autophagy related 7 enzyme): Strong selectivity
SMILES: Cc1sc(C(=O)c2cncnc2N[C@@H]2C[C@H](COS(N)(=O)=O)[C@@H](O)C2)cc1[C@@H]1NCCc2ccc(Cl)cc21 [Compound I-263a, [(1R,2S,4R)-4-{[5-({4-[(1R)-7-chloro-1,2,3,4-tetrahydroisoquinolin-1-yl]-5-methyl-2-thienyl}carbonyl)pyrimidin-4-yl]amino}-2-hydroxycyclopentyl]methyl sulfamate]
inhibition of tumor growth ([1]; Compound I-263a 15 mg/kg IV QWx1 (Day 1), 7 tumors/group): modest inhibition | tumors in stasis ([1]; stasis to day 8 of treatment, followed by rapid growth, out of 7 implanted, Compound I-263a 15 mg/kg IV Day 1): 2 | inhibition of SUMO-activating enzyme and SUMOylation [2]: Selective and potent inhibition
